# Measured values taken from US11458198B2, “HPV epitopes targeted by T cells infiltrating cervical malignancies for use in vaccines” (Academisch Ziekenhuis Leiden H.O.D.N. LUMC, priority 2007, dated 2022).
# How the values were obtained:
# Type in all cases: cell-based, human
# [1] = tested on: skin test infiltrating lymphocytes; experiment: Intracellular cytokine staining of T cell cultures from positive skin reaction sites
# Description: Skin tests, based on Delayed Type Hypersensitivity reactions (DTH), can be used as a sensitive and simple method for in vivo measurement of HPV-specific cellular immune responses (Hopfl, 2000; Hopfl, 1991). The skin test preparations consisted of 8 pools of long clinical-grade synthetic peptides spanning the whole HPV 16 E6 and E7 protein and the most immunogenic regions of HPV 16 E2 protein (de Jong, 2004). These clinical grade peptides were produced in the interdivisional GMP-Facility of the LUMC. Each pool of the skin test consisted of 2 or 3 synthetic peptides, indicated by the first and last amino acid of the region in the protein covered by the peptides. Pool 1: E231-60, E246-75, Pool 2: E2301-330, E2316-345, Pool 3: E61-31, E619-50 (SEQ ID NO: 28), Pool 4: E641-65 (SEQ ID NO: 29), E655-80 (SEQ ID NO: 30), E671-95 (SEQ ID NO: 31), Pool 5: E685-109 (SEQ ID NO: 32), E691-122 (SEQ ID NO: 33), Pool 6: E6109-140 (SEQ ID NO: 34), E6127-158 (SEQ ID NO: 35), Pool 7: E71-35 (SEQ ID NO: 36), E722-56 (SEQ ID NO: 37), Pool 8: E743-77 (SEQ ID NO: 38), E764-98 (SEQ ID NO: 39). Pool 3 comprises Seq ID 5, 22 and 23. Pool 4 comprises Seq IDs 7-9. Pool 5 comprises Seq IDs 11 and 12. Pool 6 comprises Seq IDs 13, 14, 24 and 25. Pool 7 comprises Seq ID 15 and 26. Pool 8 comprises Seq IDs 16 and 17. Per peptide pool 0.05 ml of 0.2 mg/ml peptides in 16% DMSO in 20 mM isotonic phosphate buffer (10 μg/peptide) was injected intracutaneously. The pools of peptides and a negative control (dissolvent only) were injected separately at individual skin test sites of the upper arm. Skin test sites were inspected at least three times, at 72 hours and 7 days after injection (Hopfl) of the peptides and at 3 weeks following the first report of a very late skin reaction in one of the first healthy subjects. […]
# The specificity and character of the T cell cultures derived from positive skin reaction sites was tested by ICS as reported previously (de Jong, 2005). […] After incubation at 4° C., the cells were washed, fixed with 1% paraformaldehyde and analyzed by flow cytrometry (FACSscan, BD Biosciences)
# [2] = tested on: HPV-specific T cell cultures; experiment: Intracellular cytokine staining for IFNγ, type of T cell responding; conditions: TIL culture of C265
# Protocol: (§1) Enumeration of IFNγ producing T cells as measured by intracellular cytokine staining was performed as described earlier (de Jong et al. 2005). Briefly, APC were loaded with cognate peptide or recombinant protein and incubated with T cell cultures. After 1 hour of incubation 10 μg/ml Brefeldin A (Sigma) was added and incubated overnight. Hereafter the cells were fixed with 4% paraformaldehyde (Sigma) and permeabilized with 0.1% Saponin. The samples were subsequently stained with CD4-APC, CD8-PerCP and IFNγ-PE and analyzed by flow cytometry. The minimal peptide recognized by CD8 T cells was analysed by IFNγ ELISPOT (van der Burg et al. 2001, Welters et al. 2006, de Jong et al. 2002). CD8 T cell lines were seeded in triplicate wells at a density of 2×104 on a Multiscreen 96-well plate (Millipore, Etten-Leur, The Netherlands) coated with an IFNγ catch antibody (Mabtech. Nacha, Sweden). The microcultures were stimulated with 5 μg/ml 10-mer peptides and incubated overnight. Analysis of HLA restriction of CD8 T cells was performed using 5 μg/ml 10-mer peptide pulsed PBMC or B-LCL co-cultured with equal numbers of T cells. IFNγ specific spots were stained according to the instructions of the manufacturer (Mabtech). The number of spots was analysed on a fully automated computer assisted video imaging system (BIOSYS).
# HPV-specific T cells = experiment: Fine specificity with single peptides (proliferation and IFNγ production); conditions: patients C265, C334, C284, C228 respectively
# Protocol: T cell cultures (25,000-50,000 cells/well) were tested on pulsed autologous monocytes or irradiated autologous EBVs for the recognition of HPV16 and 18 E6 and E7 peptides (5 μg/ml) and protein (10 μg/ml) in triplicate in a 3 day proliferation assay. After 48 hours supernatant was harvested and stored at −20° C. for cytokine analysis. During the last 16 hours of culture 0.5 μCi/well [^3H]thymidine was added to measure proliferation (van der Burg et al. 2001). Antigen specific IFNγ production was measured by ELISA as described earlier (van der Burg et al. 1999).
# Following the evaluation of HPV-specific reactivity, the 19 responding T cell lines were expanded by stimulation with cognate peptide, cytokine mix and feeder cells. Fifteen of these HPV-specific cultures could be sufficiently expanded for further analysis. The fine specificity of the HPV-specific T cells was determined in short-term stimulation assays using single peptides. Five cultures recognized 2 or more distinct peptides, whereas the other 10 cultures recognized a single peptide (FIG. 1B, Table 1). To assess the type of T cell that responded to antigenic stimulation, the T cell cultures were stimulated with their cognate peptide and protein antigens and the response was analyzed by intra-cellular IFNγ staining (FIG. 2). The majority of the TIL cultures contained HPV-specific CD4+ infiltrating T lymphocytes (n=13 patients, 13 different peptides recognized), whereas HPV-specific CD8^+ T cells infiltrating lymphocytes were found in 6 cultures. In 9 of the HPV-specific T cell lines only a CD4^+ T cell response was detected, in 4 T cell lines both CD4^+ T cells and CD8^+ T cells reacted and in 2 T cell lines only a CD8 T cells response was detected (Table 1, FIG. 2).
# [3] = tested on: HPV-specific CD4+ and CD8+ T cells; experiment: HLA restriction and minimal epitope (blocking antibodies, partially HLA matched APC, IFNγ ELISPOT); conditions: HLA-A*0201-restricted tumor-infiltrating CD8+ T cells
# Protocol: MHC class II blocking experiments were performed as reported before using murine monoclonal antibodies against HLA-DR (B8.11.2), HLA-DQ (SPV.L3) and HLA-DP (B7/21) (van der Burg et al. 1999). Peptide-pulsed APC were incubated with anti-MHC class II antibodies for 2 hours prior to the addition of T cells.
# as §1, with “Analysis of HLA restriction of CD8 T cells was performed using 5 μg/ml 10-mer peptide pulsed PBMC or B-LCL co-cultured with equal numbers of T cells. IFNγ specific spots were stained according to the instructions of the manufacturer (Mabtech).” left out, “(BIOSYS). […]” for “(BIOSYS).”
substance,measurement,setting,value
"E6127-158: HPV16 E6 amino acids 127-158, clinical-grade long peptide (DKKQRFHNIRGRWTGRCMSCCRSSRTRRETQL; Human papillomavirus type 16)",response of CD8+ T cells isolated from the biopsy,"[1]; HD2, biopsy of pool 6",responded
"HPV16 E6 41-62: 22-mer peptide, amino acids 41-62 of HPV16 E6 (KQQLLRREVYDFAFRDLCIVYR; UniProt P03126 41-62, looked up, fragment)","type of T cell responding, intracellular IFNγ (FIG. 2)",[2],CD4^+ and CD8^+ T cell response
"HPV16 E6109-140: HPV16 E6 amino acids 109-140, clinical-grade long peptide (RCINCQKPLCPEEKQRHLDKKQRFHNIRGRWT; Human papillomavirus type 16)",response of CD8+ T cells isolated from the biopsy,"[1]; HD2, biopsy of pool 6",responded
"HPV16E6 peptide 137-158: 22-mer peptide, amino acids 137-158 of HPV16 E6 (GRWTGRCMSCCRSSRTRRETQL; UniProt P03126 137-158, looked up, fragment)","response of bulk culture to single peptide, proliferation and IFNγ production (FIG. 1B)",HPV-specific T cells,responded
HPV16E6.37-68: amino acids 37-68 of HPV16 E6 protein (CVYCKQQLLRREVYDFAFRDLCIVYRDGNPYA; Human papillomavirus type 16),response of CD8+ T cells isolated from the biopsy,[1]; subjects HD15 and HD16,responded
same,"response of bulk culture to single peptide, proliferation and IFNγ production (FIG. 1B)",HPV-specific T cells,responded
"HPV16E7 peptide 71-92: 22-mer peptide, amino acids 71-92 of HPV16 E7 (STHVDIRTLEDLLMGTLGIVCP; UniProt P03129 71-92, looked up, fragment)","response of bulk culture to single peptide, proliferation and IFNγ production (FIG. 1B)",HPV-specific T cells,responded
HPV16E7.11-19: amino acids 11-19 of HPV16 E7 protein (IVLHLEPQN; Human papillomavirus type 16),reactivity of CD8+ T cells compared with HPV16 E7.11-20,[3],stronger reactivity
HPV18E7.21-42: amino acids 21-42 of HPV18 E7 protein (IPVDLLCHEQLSDSEEENDEID; Human papillomavirus type 18),"response of bulk culture to single peptide, proliferation and IFNγ production (FIG. 1B)",HPV-specific T cells,responded
